From US20150031668A1, “CHROMAN DERIVATIVES AS TRPM8 INHIBITORS” (AMGEN INC., priority 2013, published 2015)

Assays:
human TRPM8 = biological target: T1, human TRPM8 (Homo sapiens, UniProt Q7Z2W7); experiment: Luminescence readout assay for measuring intracellular calcium (aequorin, CHO cells expressing human TRPM8; icilin, L-menthol or cold activation); assay type: cell-based; settings: CHO cells expressing human TRPM8, icilin activation (1 μM), aequorin luminescence; read-out: hTRPM8 IC50
T1 construct: expressed in transfected cells; host or cells: Chinese hamster ovary (CHO) cells, T-REx tetracycline-inducible expression system (Invitrogen); co-transfected with pcDNA3.1 aequorin
Outline: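 Activation was by 1 μM icilin, 100 μM L-menthol (test compound 2.5 min ahead) or cold buffer below 10° C (compound 1 min ahead). Calcium rise measured as aequorin luminescence in CHO cells with tetracycline-inducible human TRPM8.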

[1] = test system: icilin induced wet-dog shakes; experiment: Inhibition of icilin induced shaking (wet-dog shakes) in rats; assay type: in vivo, male Sprague Dawley rats; settings: po, rat
Method: Inhibition of Icilin Induced Shaking in Rats
Example compounds at doses ranging from 0.01 to 3 mg/kg (p.o, suspended in 5% Tween80/Oralplus or suspended in 2% HPMC-1% Tween-80 pH2.2 with MSA, 5 mL/kg) can be administered to male Sprague Dawley rats (200-300 g, Harlan, n=6-8/treatment) 2 h before icilin to assess the ability to block the spontaneous wet-dog shake phenomena induced by icilin (i.p., suspended in 100% PEG400 at 0.5 mg/kg, 1 mL/kg or p.o., suspended in 2% HPMC-1% Tween-80 at 3 mg/kg, 2.5 mL/kg). Spontaneous wet-dog shakes may be counted manually by two blinded observers or using LABORAS automation (Metris) for 30 min post-icilin. The synthesized and prophetic example compounds may be measured using these procedures and will be found to reduce the spontaneous wet dog shake phenomena induced by icilin.

T1 sequence (Q7Z2W7 whole entry): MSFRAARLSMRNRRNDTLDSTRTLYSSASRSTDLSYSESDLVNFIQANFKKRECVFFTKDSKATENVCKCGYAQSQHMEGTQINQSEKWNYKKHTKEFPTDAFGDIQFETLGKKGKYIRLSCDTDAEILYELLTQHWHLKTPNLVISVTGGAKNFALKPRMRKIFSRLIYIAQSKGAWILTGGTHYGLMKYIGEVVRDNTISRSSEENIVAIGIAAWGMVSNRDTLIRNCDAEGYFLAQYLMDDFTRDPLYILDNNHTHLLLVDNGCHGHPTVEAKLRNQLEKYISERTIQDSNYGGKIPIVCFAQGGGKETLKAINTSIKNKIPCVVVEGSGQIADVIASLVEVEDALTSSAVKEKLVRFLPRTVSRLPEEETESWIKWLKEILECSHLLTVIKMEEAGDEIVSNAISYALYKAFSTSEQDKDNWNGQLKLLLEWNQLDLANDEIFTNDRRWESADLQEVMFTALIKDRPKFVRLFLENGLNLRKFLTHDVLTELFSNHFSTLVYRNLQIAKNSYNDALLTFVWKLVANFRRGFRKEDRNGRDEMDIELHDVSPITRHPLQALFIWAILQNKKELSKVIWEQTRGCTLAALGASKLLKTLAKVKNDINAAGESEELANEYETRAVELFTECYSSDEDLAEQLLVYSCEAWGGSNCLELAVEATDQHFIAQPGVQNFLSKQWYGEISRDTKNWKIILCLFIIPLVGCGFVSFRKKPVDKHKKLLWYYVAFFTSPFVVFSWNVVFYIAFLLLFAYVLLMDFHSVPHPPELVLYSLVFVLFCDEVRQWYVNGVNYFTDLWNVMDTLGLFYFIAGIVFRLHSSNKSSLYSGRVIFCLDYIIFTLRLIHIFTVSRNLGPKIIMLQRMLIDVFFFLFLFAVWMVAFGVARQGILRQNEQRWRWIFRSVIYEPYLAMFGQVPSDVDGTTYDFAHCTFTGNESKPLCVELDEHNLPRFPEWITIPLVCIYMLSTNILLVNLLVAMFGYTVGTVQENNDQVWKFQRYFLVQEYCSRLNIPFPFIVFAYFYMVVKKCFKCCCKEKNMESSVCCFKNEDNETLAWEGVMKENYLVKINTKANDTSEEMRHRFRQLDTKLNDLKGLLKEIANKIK

Compound	IC50 (human TRPM8) [nM]	inhibition in vivo at 1 mg/kg [1] [%]	inhibition in vivo at 0.3 mg/kg ([1]; dose 0.3 mg/kg) [%]
O=C(N[C@]1(c2ccc(C(F)(F)F)cc2)CCOc2cccnc21)c1ccc2oc(=O)[nH]c2c1 [Example 61, (S)-2-oxo-N-(4-(4-(trifluoromethyl)phenyl)-3,4-dihydro-2H-pyrano[3,2-b]pyridin-4-yl)-2,3-dihydrobenzo[d]oxazole-5-carboxamide]	6	80	
O=C(O)c1ccc(C(=O)N[C@]2(c3ccc(OC(F)(F)F)c(F)c3)CCOc3cccnc32)cc1 [Example 204, (S)-4-((4-(3-fluoro-4-(trifluoromethoxy)phenyl)-3,4-dihydro-2H-pyrano[3,2-b]pyridin-4-yl)carbamoyl) benzoic acid]	7	98	
O=C(N[C@]1(c2ccc(C(F)(F)F)c(F)c2)CCOc2cccnc21)c1ccc(=O)[nH]c1 [Example 170, (S)-N-(4-(3-fluoro-4-(trifluoromethyl)phenyl)-3,4-dihydro-2H-pyrano[3,2-b]pyridin-4-yl)-6-oxo-1,6-dihydropyridine-3-carboxamide]	21	90	
N#Cc1ccc(-c2ccc([C@@]3(NC(=O)c4ccc5oc(=O)[nH]c5c4)CCOc4cccnc43)cc2)cc1 [Example 155, (S)—N-(4-(4′-cyano-[1,1′-biphenyl]-4-yl)-3,4-dihydro-2H-pyrano[3,2-b]pyridin-4-yl)-2-oxo-2,3-dihydrobenzo[d]oxazole-5-carboxamide 2,2,2-trifluoroacetate]	16	60	
O=C(N[C@]1(c2ccc(OC(F)(F)F)c(F)c2)CCOc2cccnc21)c1ccc(=O)[nH]c1 [Example 59, (S)—N-(4-(3-fluoro-4-(trifluoromethoxy)phenyl)-3,4-dihydro-2H-pyrano[3,2-b]pyridin-4-yl)-6-oxo-1,6-dihydropyridine-3-carboxamide]	13	99	
O=C(N[C@]1(c2ccc(OC(F)(F)F)cc2)CCOc2cccnc21)c1ccc(=O)[nH]c1 (single isomer, unassigned) [Example 58]	21	97	
O=C(Nc1ncccn1)N[C@]1(c2ccc(OC(F)(F)F)c(F)c2)CCOc2cccnc21 [Example 83, (S)-1-(4-(3-fluoro-4-(trifluoromethoxy)phenyl)-3,4-dihydro-2H-pyrano[3,2-b]pyridin-4-yl)-3-(pyrimidin-2-yl)urea]	28	59	
O=C(Nc1cncnc1)N[C@]1(c2ccc(OC(F)(F)F)c(F)c2)CCOc2cccnc21 [Example 85, (S)-1-(4-(3-fluoro-4-(trifluoromethoxy)phenyl)-3,4-dihydro-2H-pyrano[3,2-b]pyridin-4-yl)-3-(pyrimidin-5-yl)urea]	12	72	
O=C(N[C@]1(c2ccc(OC(F)(F)F)c(F)c2)CCOc2cccnc21)c1ccc2[nH]c(=O)oc2c1 (single isomer, unassigned) [Example 21]	7	98	
O=C(N[C@]1(c2ccc(OC(F)(F)F)c(F)c2)CCOc2cccnc21)c1ccc(-c2noc(=O)[nH]2)cn1 [Example 283, (S)—N-(4-(3-fluoro-4-(trifluoromethoxy)phenyl)-3,4-dihydro-2H-pyrano[3,2-b]pyridin-4-yl)-5-(5-oxo-4,5-dihydro-1,2,4-oxadiazol-3-yl)picolinamide]	44	78	
O=C(N[C@]1(c2ccc(OC(F)(F)F)c(F)c2)CCOc2cccnc21)c1c[nH]c(=O)cn1 [Example 50, (S)-N-(4-(3-fluoro-4-(trifluoromethoxy)phenyl)-3,4-dihydro-2H-pyrano[3,2-b]pyridin-4-yl)-5-oxo-4,5-dihydropyrazine-2-carboxamide]	8	67	
O=C(O)c1ccc(C(=O)N[C@]2(c3ccc(OC(F)(F)F)c(F)c3)CCOc3cccnc32)nc1 [Example 75]	14	99	

Further lines, with some results ahead:

IC50 (human TRPM8) [nM]	Compound	inhibition in vivo at 1 mg/kg [1] [%]	inhibition in vivo at 0.3 mg/kg ([1]; dose 0.3 mg/kg) [%]
23	O=C(O)c1ccc(C(=O)N[C@]2(c3ccc(OC(F)(F)F)cc3)CCOc3cccnc32)nc1 [Example 327, (S)-6-((4-(4-(trifluoro-methoxy)phenyl)-3,4-dihydro-2H-pyrano[3,2-b]pyridin-4-yl)carbamoyl) nicotinic acid]	93	
25	O=C(O)c1ccc(C(=O)N[C@]2(c3ccc(Cl)c(Cl)c3)CCOc3cccnc32)nc1 [Example 318, (S)-6-((4-(3,4-dichloro-phenyl)-3,4-dihydro-2H-pyrano[3,2-b]pyridin-4-yl)carbamoyl) nicotinic acid]	86	
18	C=Cc1cc(C(=O)N[C@]2(c3ccc(OC(F)(F)F)c(F)c3)CCOc3cccnc32)ccc1C(=O)O [Example 289, (S)-4-((4-(3-fluoro-4-(trifluoromethoxy)phenyl)-3,4-dihydro-2H-pyrano[3,2-b]pyridin-4-yl)carbamoyl)-2-vinylbenzoic acid]	93	
4	COc1cc(C(=O)O)ccc1C(=O)N[C@]1(c2ccc(OC(F)(F)F)c(F)c2)CCOc2cccnc21 [Example 314, (S)-4-((4-(3-fluoro-4-(trifluoromethoxy)phenyl)-3,4-dihydro-2H-pyrano[3,2-b]pyridin-4-yl)carbamoyl)-3-methoxybenzoic acid]	99	
12	Nc1cc(C(=O)N[C@]2(c3ccc(OC(F)(F)F)c(F)c3)CCOc3cccnc32)ccc1C(=O)O [Example 321, (S)-2-amino-4-((4-(3-fluoro-4-(trifluoro-methoxy)phenyl)-3,4-dihydro-2H-pyrano[3,2-b]pyridin-4-yl)carbamoyl) benzoic acid]	95	
15	CCc1cc(C(=O)N[C@]2(c3ccc(OC(F)(F)F)c(F)c3)CCOc3cccnc32)ccc1C(=O)O [Example 291, (S)-2-ethyl-4-((4-(3-fluoro-4-(trifluoromethoxy)phenyl)-3,4-dihydro-2H-pyrano[3,2-b]pyridin-4-yl)carbamoyl)benzoic acid]	97	
15	Cc1cc(C(=O)N[C@]2(c3ccc(OC(F)(F)F)cc3)CCOc3cccnc32)ccc1C(=O)O [Example 319, (S)-2-methyl-4-((4-(4-(trifluoro-methoxy)phenyl)-3,4-dihydro-2H-pyrano[3,2-b]pyridin-4-yl)carbamoyl) benzoic acid]		75
14	O=C(O)c1ccc(C(=O)N[C@]2(c3ccc(C(F)(F)F)c(F)c3)CCOc3cccnc32)nc1 [Example 313, (S)-6-((4-(3-fluoro-4-(trifluoro-methyl)phenyl)-3,4-dihydro-2H-pyrano[3,2-b]pyridin-4-yl)carbamoyl) nicotinic acid]	99	
33	O=C(O)c1ccc(C(=O)N[C@]2(c3ccc(C(F)(F)F)cc3)CCOc3cccnc32)nc1 [Example 326, (S)-6-((4-(4-(trifluoro-methyl)phenyl)-3,4-dihydro-2H-pyrano[3,2-b]pyridin-4-yl)carbamoyl) nicotinic acid]	98	
16	Cc1cc(C(=O)N[C@]2(c3ccc(OC(F)(F)F)c(F)c3)CCOc3cccnc32)ccc1C(=O)O [Example 332, (S)-4-((4-(3-fluoro-4-(trifluoromethoxy)phenyl)-3,4-dihydro-2H-pyrano[3,2-b]pyridin-4-yl)carbamoyl)-2-methylbenzoic acid]	99	
8	Cc1nc(C(=O)N[C@]2(c3ccc(OC(F)(F)F)c(F)c3)CCOc3cccnc32)ccc1C(=O)O [Example 310, (S)-6-((4-(3-fluoro-4-(trifluoro-methoxy)phenyl)-3,4-dihydro-2H-pyrano[3,2-b]pyridin-4-yl)carbamoyl)-2-methylnicotinic acid]	98	
